Test results published in paper PMC4153544, “Antidiabetic Property of Symplocos cochinchinensis Is Mediated by Inhibition of Alpha Glucosidase and Enhanced Insulin Sensitivity” (PLoS ONE, 2014).
Converted amounts (≈) assume the structure as drawn.

Biological target: T1, rat intestinal alpha glucosidase
T1 construct: gene Si; rat intestinal alpha-glucosidase preparation
Test: alpha-glucosidase inhibition assay
Type: biochemical
Settings: standard; rat intestinal enzyme

In the case of `C[C@H]1O[C@H](O[C@H]2[C@H](O)[C@@H](O)[C@@H](O[C@H]3[C@H](O)[C@@H](O)C(O)O[C@@H]3CO)O[C@@H]2CO)[C@H](O)[C@@H](O)[C@@H]1N[C@H]1C=C(CO)[C@@H](O)[C@H](O)[C@H]1O` (stereo partly shown) [acarbose], the IC50 is reported as 49.78 ± 1.45 µg/mL (≈ 77.1 µM).
